# From paper PMC11969009 (Nature Communications, 2025)
# Several values for one entry are separate records, joined by “and”; a condition that tells them apart may be missing. Identical values can stand only once. Like-named read-outs stand apart in the source and are kept apart here.
# Columns and labels:
# [1] = tested on: SARS-CoV-2 clinical isolate VIC001; experiment: microbe, parasite or virus in culture; assay type: cell-based
# SARS-CoV-2 PLpro [2] = target: T1, SARS-CoV-2 PLpro (Severe acute respiratory syndrome coronavirus 2, UniProt P0DTD1); experiment: cell-based; assay type: cell-based
# 229E PL2pro = 229E PL2pro (Human coronavirus 229E, UniProt P0C6X1); experiment: biochemical; parameters: inhibition of 229E PL2pro, UbRh dose-response replicate value: unit: %
# SARS-CoV PLpro = SARS-CoV PLpro (Severe acute respiratory syndrome coronavirus, UniProt P0C6X7); experiment: biochemical; parameters: inhibition of SARS-CoV PLpro, UbRh dose-response replicate value: unit: %
# NL63 PL2pro = NL63 PL2pro (Human coronavirus NL63, UniProt P0C6X5); experiment: biochemical; parameters: inhibition of NL63 PL2pro, UbRh dose-response replicate value: unit: %
# SARS-CoV-2 PLpro [3] = target: T1, SARS-CoV-2 PLpro; experiment: biochemical; assay type: binding
# USP21 = USP21 (Homo sapiens, UniProt Q9UK80); assay type: biochemical
# MERS-CoV PLpro = MERS-CoV PLpro (Middle East respiratory syndrome-related coronavirus, UniProt K9N7C7); assay type: biochemical; parameters: unit: %
smiles,measurement,setting,value
CO/N=C(/c1ccc2cc(OC)ccc2c1)[C@@H]1CCCN([C@H]2CC[C@@H](O)CC2)C1 [WEHI-P4],EC50,"[1]; Severe acute respiratory syndrome coronavirus 2, Vero, read-out: Antiviral EC50 (plaque assay)",0.4 µM
same,EC50,"[1]; Severe acute respiratory syndrome coronavirus 2, Vero, read-out: Antiviral EC50 (plaque assay) with Pgp inhibitor",0.306 µM
same,EC50,[1]; read-out: Antiviral EC50 (plaque assay),0.41 µM
same,EC50,SARS-CoV-2 PLpro [2],0.31 µM
same,"inhibition of 229E PL2pro, UbRh dose-response replicate value",229E PL2pro,-3.299 and -1.103 and -1.357 and -1.684 and -5 and -3.221 and 0.1898 and -0.4439 and 15.3408 and -2.102 and -1.619 and -0.7174 and -1.603 and -0.8771 and -3.61 and -1.122 and -1.443 and -0.5265 and -4.511 and -0.9697
same,"inhibition of 229E PL2pro, UbRh dose-response replicate value",229E PL2pro; Conc 0.00498 µM,-2.024 and 3.205 and 24.2526 and 1.229
same,"inhibition of 229E PL2pro, UbRh dose-response replicate value",229E PL2pro; Conc 0.0149 µM,-0.08917 and 0.9383 and 15.3791 and -0.8809
same,"inhibition of 229E PL2pro, UbRh dose-response replicate value",229E PL2pro; Conc 0.0448 µM,-0.8342 and -1.338 and 5.491 and -0.5647
same,"inhibition of 229E PL2pro, UbRh dose-response replicate value",229E PL2pro; Conc 3.63 µM,-3.66 and -1.559 and -7.103 and -2.2201
same,"inhibition of 229E PL2pro, UbRh dose-response replicate value",229E PL2pro; Conc 98 µM,0.4544 and 1.371 and 3.91 and 5.222
same,IC50,SARS-CoV PLpro,0.022 µM
same,"inhibition of SARS-CoV PLpro, UbRh dose-response replicate value",SARS-CoV PLpro,99.5179 and 99.8695 and 99.888 and 100.41 and 101.206 and 100.652 and 97.9154 and 99.4293 and 98.8906 and 95.7801 and 96.2197 and 96.0782 and 88.7276 and 90.1243 and 89.7578
same,"inhibition of SARS-CoV PLpro, UbRh dose-response replicate value",SARS-CoV PLpro; Conc 0.00498 µM,14.7599 and 17.411 and 20.7686
same,inhibition at 0.00498 µM,"SARS-CoV PLpro; Conc 0.00498 µM, read-out: inhibition of SARS-CoV PLpro, UbRh dose-response replicate value",16.2%
same,"inhibition of SARS-CoV PLpro, UbRh dose-response replicate value",SARS-CoV PLpro; Conc 0.0149 µM,37.3989 and 38.0308 and 36.4129
same,inhibition at 0.0149 µM,"SARS-CoV PLpro; Conc 0.0149 µM, read-out: inhibition of SARS-CoV PLpro, UbRh dose-response replicate value",35.6%
same,"inhibition of SARS-CoV PLpro, UbRh dose-response replicate value",SARS-CoV PLpro; Conc 0.0448 µM,69.6451 and 70.3349 and 71.2781
same,inhibition at 0.0448 µM,"SARS-CoV PLpro; Conc 0.0448 µM, read-out: inhibition of SARS-CoV PLpro, UbRh dose-response replicate value",67.2%
same,"inhibition of SARS-CoV PLpro, UbRh dose-response replicate value",SARS-CoV PLpro; Conc 3.63 µM,99.5331 and 99.9857 and 99.4982
same,inhibition at 3.63 µM,"SARS-CoV PLpro; Conc 3.63 µM, read-out: inhibition of SARS-CoV PLpro, UbRh dose-response replicate value",99.4%
same,"inhibition of SARS-CoV PLpro, UbRh dose-response replicate value",SARS-CoV PLpro; Conc 98 µM,99.3819 and 99.8238 and 100.106
same,inhibition at 98 µM,"SARS-CoV PLpro; Conc 98 µM, read-out: inhibition of SARS-CoV PLpro, UbRh dose-response replicate value",99.7%
same,inhibition at […],"SARS-CoV PLpro; read-out: inhibition of SARS-CoV PLpro, UbRh dose-response replicate value",100% (2×) and 98.8% and 95.9% and 88.8%
same,IC50,NL63 PL2pro,52 µM
same,"inhibition of NL63 PL2pro, UbRh dose-response replicate value",NL63 PL2pro,29.2044 and 27.2154 and 12.8016 and 14.0355 and 13.7224 and -0.9824 and 3.459 and 0.1256 and -0.3351 and 1.574 and 1.516 and -0.1016 and -0.4149 and 0.8753 and 0.8707 and 2.0171 and 6.071
same,"inhibition of NL63 PL2pro, UbRh dose-response replicate value",NL63 PL2pro; Conc 0.00498 µM,2.403 and 7.259 and 5.7694 and -2.335
same,"inhibition of NL63 PL2pro, UbRh dose-response replicate value",NL63 PL2pro; Conc 0.0149 µM,1.231 and 5.289 and 2.0908 and -3.1147
same,"inhibition of NL63 PL2pro, UbRh dose-response replicate value",NL63 PL2pro; Conc 0.0448 µM,0.2539 and -0.387 and 1.95 and -0.1081
same,"inhibition of NL63 PL2pro, UbRh dose-response replicate value",NL63 PL2pro; Conc 3.63 µM,5.122 and 3.572 and 1.225 and -0.02217
same,"inhibition of NL63 PL2pro, UbRh dose-response replicate value",NL63 PL2pro; Conc 98 µM,57.8171 and 54.6906 and 55.1157
same,inhibition at 98 µM,"NL63 PL2pro; Conc 98 µM, read-out: inhibition of NL63 PL2pro, UbRh dose-response replicate value",58.4%
same,inhibition at […],"NL63 PL2pro; read-out: inhibition of NL63 PL2pro, UbRh dose-response replicate value",34.7% and 15.8%
same,Kd,SARS-CoV-2 PLpro [3],0.018 µM
same,"Response (RU), report points",SARS-CoV-2 PLpro [3],23.5521 RU and 19.8909 RU and 21.8514 RU and 23.0991 RU and 23.6093 RU and 23.8360 RU
same,"inhibition of USP21, UbRh dose-response replicate value",USP21,-14.237 and -11.9773 and -10.1399 and -17.0381 and -16.4868 and -21.6825 and -18.261 and -18.781 and -13.7423 and -13.1772 and -6.117 and -6.284 and -18.5884 and -21.057 and -7.715 and -13.3224
same,"inhibition of USP21, UbRh dose-response replicate value",USP21; Conc 0.000249 µM,-14.4284 and -17.3988 and 5.209 and -15.2664
same,"inhibition of USP21, UbRh dose-response replicate value",USP21; Conc 0.000745 µM,-25.0632 and -19.3083 and -9.965 and -17.0572
same,"inhibition of USP21, UbRh dose-response replicate value",USP21; Conc 0.00675 µM,-16.8226 and -16.7878 and -5.942 and -9.8797
same,"inhibition of USP21, UbRh dose-response replicate value",USP21; Conc 0.545 µM,-6.303 and -14.0881 and -12.3002 and -21.4576
same,"inhibition of USP21, UbRh dose-response replicate value",USP21; Conc 1.64 µM,-4.137 and -7.939 and -11.2839 and -6.868
same,"inhibition of USP21, UbRh dose-response replicate value",USP21; Conc 4.9 µM,-8.882 and -9.138
same,"inhibition of MERS-CoV PLpro, UbRh dose-response replicate value",MERS-CoV PLpro,-2.626 and 0.2924 and -2.097 and -1.6716 and -0.7294 and -2.565 and -2.287 and 0.1452 and -3.504 and -2.889 and 1.578 and -2.541 and -3.292 and -3.12 and -0.8701 and -1.654 and -2.848 and 0.1888 and -1.626
